The target of one assay is T1, human CB2 (hCB2) (Homo sapiens, UniProt P34972).
T1 construct: (cDNA clone) CNR0200000
The assay is described as follows: 35S GTPγS binding assay, hCB2 agonist. In kind it is biochemical. Conditions: GTPγS agonist, HEK-293 membranes; read-out: hCB2 EC50 (GTPyS ag). The method in brief: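 Agonist-stimulated [35S]GTPγS (0.1 nM) binding measured by scintillation proximity after 90 min at room temperature. Reaction buffer: 50 mM HEPES pH 7.4, 100 mM NaCl, 5 mM MgCl2, 0.001% saponin plus 20 uM GDP. Membranes (5 μg) came from transfected cells expressing hCB2 cDNA (pcDNA3.1+ vector).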
On the technique in general: GTPγS resists hydrolysis and so accumulates on activated G proteins.

In another assay the target is T2, human CB2 receptors (Homo sapiens, UniProt P34972).
T2 construct: (cDNA clone) CNR0200000
The assay is described as follows: cAMP assay in HEK-293 cells, hCB2 agonist. In kind it is cell-based. The settings on record: inhibition of forskolin-stimulated cAMP, HEK-293 cells; read-out: hCB2 EC50 (cAMP ag). The essentials: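 Stable hCB2 HEK-293 cells in HBSS/10 mM HEPES/0.1% fatty-acid-free BSA incubated 30 min at 37° C with compound; forskolin 90 uM in 3× compound mix.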
In general terms: cAMP levels reflect the balance of adenylyl cyclase and phosphodiesterase activity.

Assay [1] has as its target T3, recombinant human cannabinoid receptor CB1 (Homo sapiens, UniProt P21554).
T3 construct: (cDNA clone) CNR01L000
Briefly: Cannabinoid receptor radioligand binding assay, [3H]-CP 55,940 displacement, hCB1. The method in brief:
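Displacement of 0.5 nM [3H]-CP 55,940 (1 μM unlabeled CP 55,940 for nonspecific) measured by filtration and scintillation counting. Binding ran 90 min at room temperature in pH 7.5 Tris buffer with 0.1% fatty-acid-free BSA, using recombinant hCB1 HEK-293 membranes at 2-10 μg protein.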

A word on the EC50: it is the concentration needed to bring the measured effect to its halfway point. Broadly, the IC50 is the concentration that gives 50% inhibition.

T1 sequence (P34972 whole entry): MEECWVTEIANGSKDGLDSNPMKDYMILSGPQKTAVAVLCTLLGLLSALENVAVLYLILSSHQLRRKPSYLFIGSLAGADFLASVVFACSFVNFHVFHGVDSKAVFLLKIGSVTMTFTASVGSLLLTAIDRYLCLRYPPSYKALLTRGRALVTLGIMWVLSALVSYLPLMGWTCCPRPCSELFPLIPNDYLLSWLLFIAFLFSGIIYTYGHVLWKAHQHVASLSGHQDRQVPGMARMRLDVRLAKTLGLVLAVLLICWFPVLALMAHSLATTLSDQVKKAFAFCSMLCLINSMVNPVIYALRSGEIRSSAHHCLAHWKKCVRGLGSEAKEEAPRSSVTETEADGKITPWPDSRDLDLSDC
T2 sequence (P34972 whole entry): as above
T3 sequence (P21554 whole entry): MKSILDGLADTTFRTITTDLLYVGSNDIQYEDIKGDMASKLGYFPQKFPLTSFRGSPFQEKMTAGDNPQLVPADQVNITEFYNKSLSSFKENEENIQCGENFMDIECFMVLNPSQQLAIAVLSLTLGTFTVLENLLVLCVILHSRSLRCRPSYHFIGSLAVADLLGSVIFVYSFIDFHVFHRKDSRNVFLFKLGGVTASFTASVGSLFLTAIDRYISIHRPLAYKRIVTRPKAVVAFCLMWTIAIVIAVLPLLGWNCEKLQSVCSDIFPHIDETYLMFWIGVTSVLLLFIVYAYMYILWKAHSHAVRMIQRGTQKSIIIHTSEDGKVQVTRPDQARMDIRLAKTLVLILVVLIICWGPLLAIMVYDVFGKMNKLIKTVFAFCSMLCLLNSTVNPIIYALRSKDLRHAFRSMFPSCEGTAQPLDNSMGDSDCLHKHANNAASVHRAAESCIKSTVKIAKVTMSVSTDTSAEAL

`COc1ccc(C(=O)c2cc3cc(C)n(CC4CCOCC4)c3s2)cc1` [Compound 62, (4-Methoxyphenyl)(5-methyl-6-((tetrahydro-2H-pyran-4-yl)methyl)-6H-thieno[2,3-b]pyrrol-2-yl)methanone]: the 50% effective concentration (EC50) at human CB2 (hCB2) and on human CB2 receptors was less than 100 nM in each case. Moreover, the IC50 in assay [1] was in the range of 1000 to 10000 nM.

Take `Cc1cc2cc(C(=O)c3cccc(Cl)c3Cl)sc2n1S(=O)(=O)CC1CCOCC1` [Compound 46, (2,3-Dichlorophenyl)(5-methyl-6-((tetrahydro-2H-pyran-4-yl)methylsulfonyl)-6H-thieno[2,3-b]pyrrol-2-yl)methanone]: the EC50 on human CB2 (hCB2) and on human CB2 receptors was less than 100 nM in each case. The 50% inhibitory concentration (IC50) in assay [1] was less than 100 nM.

For `COc1ccc(C(=O)c2cc3cc(C)n(S(=O)(=O)CC4CCOCC4)c3s2)cc1` [Compound 57, (4-Methoxyphenyl)(5-methyl-6-((tetrahydro-2H-pyran-4-yl)methylsulfonyl)-6H-thieno[2,3-b]pyrrol-2-yl)methanone], the EC50 at human CB2 (hCB2) and on human CB2 receptors was less than 100 nM throughout. In addition, the half-inhibitory concentration (IC50) in assay [1] is less than 100 nM.

`COc1ccc(C(=O)c2cc3cc(C)n(CCN4CCOCC4)c3s2)c(Cl)c1` [Compound 70, (2-Chloro-4-methoxyphenyl)(5-methyl-6-(2-morpholinoethyl)-6H-thieno[2,3-b]pyrrol-2-yl)methanone]: the concentration giving a half-maximal response (EC50) on human CB2 (hCB2) and on human CB2 receptors was less than 100 nM in each case. In addition, the IC50 in assay [1] fell in the range of 100 to 1000 nM.

Turning to `COc1ccc(C(=O)c2cc3cc(C)n(S(=O)(=O)N4CCOCC4)c3s2)cc1` [Compound 53, (4-methoxyphenyl)(5-methyl-6-(morpholinosulfonyl)-6H-thieno[2,3-b]pyrrol-2-yl)methanone], the EC50 on human CB2 (hCB2) and at human CB2 receptors was less than 100 nM each time. Moreover, in assay [1], the 50% inhibitory concentration (IC50) was less than 100 nM.

Consider `COc1ccc(C(=O)c2cc3cc(C)n(CCNC4CCOC4)c3s2)cn1` (stereo not drawn) [Compound 164, (6-methoxypyridin-3-yl)(5-methyl-6-(2-((tetrahydrofuran-3-yl)amino)ethyl)-6H-thieno[2,3-b]pyrrol-2-yl)methanone], for which the figures for the EC50 at human CB2 (hCB2) and on human CB2 receptors were 1000 to 10000 nM and less than 100 nM, respectively. For the same compound, the IC50 in assay [1] fell in the range of 1000 to 10000 nM.

With `CCS(=O)(=O)n1c(C)cc2cc(C(=O)c3cccc(Cl)c3Cl)sc21` [Compound 25, (2,3-Dichlorophenyl)(6-(ethylsulfonyl)-5-methyl-6H-thieno[2,3-b]pyrrol-2-yl)methanone], the concentration giving a half-maximal response (EC50) on human CB2 (hCB2) and on human CB2 receptors was less than 100 nM each time. Moreover, in assay [1], the IC50 lay within 1000 to 10000 nM.

As for `Cc1cc2cc(C(=O)c3ccccc3)sc2n1CCN1CCOCC1` [Compound 7, (5-Methyl-6-(2-morpholinoethyl)-6H-thieno[2,3-b]pyrrol-2-yl)(phenyl)methanone], the EC50 at human CB2 (hCB2) was 100 to 1000 nM; on human CB2 receptors, less than 100 nM. The IC50 in assay [1] lay within 1000 to 10000 nM.

In the case of `COc1ccc(C(=O)c2cc3cc(C)n(CCN4CCCCC4)c3s2)cc1` [Compound 78, (4-Methoxyphenyl)(5-methyl-6-(2-(piperidin-1-yl)ethyl)-6H-thieno[2,3-b]pyrrol-2-yl)methanone], the EC50 on human CB2 (hCB2) and on human CB2 receptors was less than 100 nM each time. Also, the IC50 in assay [1] was 1000 to 10000 nM.

As for `COc1ccc(C(=O)c2cc3cc(C)n(CCCNS(C)(=O)=O)c3s2)c(F)c1` [Compound 87, N-(3-(2-(2-Fluoro-4-methoxybenzoyl)-5-methyl-6H-thieno[2,3-b]pyrrol-6-yl)propyl)methanesulfonamide], the EC50 on human CB2 (hCB2) and at human CB2 receptors was less than 100 nM each time. Also, the IC50 in assay [1] was more than 10000 nM.

`CCS(=O)(=O)n1c(C)cc2cc(C(=O)c3cccnc3Cl)sc21` [Compound 43, (2-Chloropyridin-3-yl)(6-(ethylsulfonyl)-5-methyl-6H-thieno[2,3-b]pyrrol-2-yl)methanone]: the EC50 at human CB2 (hCB2) and at human CB2 receptors was less than 100 nM each time. Further, the IC50 in assay [1] is more than 10000 nM.

Regarding `Cc1cc2cc(C(=O)c3ccc(C#N)cc3)sc2n1CCN1CCOCC1` [Compound 129, 4-(5-methyl-6-(2-morpholinoethyl)-6H-thieno[2,3-b]pyrrole-2-carbonyl)benzonitrile], the half-maximal effective concentration (EC50) at human CB2 (hCB2) is less than 100 nM; at human CB2 receptors, 100 to 1000 nM. Moreover, the IC50 in assay [1] fell in the range of 1000 to 10000 nM.

In the case of `Cc1cc2cc(C(=O)c3cccc(Cl)c3Cl)sc2n1CCCNS(C)(=O)=O` [Compound 37, N-(3-(2-(2,3-Dichlorobenzoyl)-5-methyl-6H-thieno[2,3-b]pyrrol-6-yl)propyl)methanesulfonamide], the concentration giving a half-maximal response (EC50) on human CB2 (hCB2) and on human CB2 receptors was less than 100 nM throughout. Further, in assay [1], the IC50 was more than 10000 nM.

(Values after patent US20130029970A1 (priority 2009, published 2013).)
